Results on 16 compounds are retold here after ChEMBL document CHEMBL1151118, “Plant antimutagenic agents, 2. Flavonoids” (J Nat Prod, 1988).

In data set [1] the test system is Salmonella typhimurium. As to the kind of experiment: Antimutagenic activity in Salmonella Typhimurium […] assessed as inhibition of 2-aminoanthracene-induced mutation at 600 ug/plate after 72 hrs in presence of Ames S-9 fraction. The class given is functional, Salmonella enterica subsp. enterica serovar Typhimurium.
The subject of data set [2] is Salmonella typhimurium. Nature of the data set: Antimutagenic activity in Salmonella Typhimurium […] assessed as inhibition of 2-aminoanthracene-induced mutation at 300 ug/plate after 72 hrs in presence of Ames S-9 fraction. The class given is functional, Salmonella enterica subsp. enterica serovar Typhimurium.
Data set [3] has as its system Salmonella typhimurium. Nature of the data set: Antimutagenic activity in Salmonella Typhimurium […] assessed as inhibition of 2-aminoanthracene-induced mutation at 150 ug/plate after 72 hrs in presence of Ames S-9 fraction. In kind it is functional, Salmonella enterica subsp. enterica serovar Typhimurium.
Data set [4] relates to Salmonella typhimurium. Nature of the data set: Antimutagenic activity in Salmonella Typhimurium […] assessed as inhibition of acetylaminofluorene-induced mutation at 600 ug/plate after 72 hrs in presence of Ames S-9 fraction. In kind it is functional, Salmonella enterica subsp. enterica serovar Typhimurium.
For data set [5], the system named is Salmonella typhimurium. As to the kind of experiment: Antimutagenic activity in Salmonella Typhimurium […] assessed as inhibition of acetylaminofluorene-induced mutation at 300 ug/plate after 72 hrs in presence of Ames S-9 fraction. In kind it is functional, Salmonella enterica subsp. enterica serovar Typhimurium.
Data set [6] has as its system Salmonella typhimurium. Nature of the data set: Antimutagenic activity in Salmonella Typhimurium […] assessed as inhibition of acetylaminofluorene-induced mutation at 150 ug/plate after 72 hrs in presence of Ames S-9 fraction. The class given is functional, Salmonella enterica subsp. enterica serovar Typhimurium.
In data set [7] the test system is Salmonella typhimurium. Nature of the data set: Antimutagenic activity in Salmonella Typhimurium […] assessed as inhibition of benzo[a]pyrene-induced mutation at 600 ug/plate after 72 hrs in presence of Ames S-9 fraction. The class given is functional, Salmonella enterica subsp. enterica serovar Typhimurium.
Data set [8] has as its system Salmonella typhimurium. As to the kind of experiment: Antimutagenic activity in Salmonella Typhimurium […] assessed as inhibition of benzo[a]pyrene-induced mutation at 300 ug/plate after 72 hrs in presence of Ames S-9 fraction. In kind it is functional, Salmonella enterica subsp. enterica serovar Typhimurium.
The test system of data set [9] is Salmonella typhimurium. As to the kind of experiment: Antimutagenic activity in Salmonella Typhimurium […] assessed as inhibition of benzo[a]pyrene-induced mutation at 150 ug/plate after 72 hrs in presence of Ames S-9 fraction. The class given is functional, Salmonella enterica subsp. enterica serovar Typhimurium.
Data set [10] relates to Salmonella typhimurium. Nature of the data set: Antimutagenic activity in Salmonella Typhimurium […] assessed as inhibition of 2-nitroflorene-induced mutation at 600 ug/plate after 72 hrs. The class given is functional, Salmonella enterica subsp. enterica serovar Typhimurium.
The test system of data set [11] is Salmonella typhimurium. Nature of the data set: Antimutagenic activity in Salmonella Typhimurium […] assessed as inhibition of 2-nitroflorene-induced mutation at 300 ug/plate after 72 hrs. In kind it is functional, Salmonella enterica subsp. enterica serovar Typhimurium.
For data set [12], the system named is Salmonella typhimurium. Nature of the data set: Antimutagenic activity in Salmonella Typhimurium […] assessed as inhibition of 2-nitroflorene-induced mutation at 150 ug/plate after 72 hrs. The class given is functional, Salmonella enterica subsp. enterica serovar Typhimurium.
Data set [13] can be described thus: Toxicity in Salmonella Typhimurium […] at 600 ug/plate after 72 hrs by Ames assay in presence of Ames S-9 fraction. In kind it is organism-based. The following applies: salmonella enterica subsp. enterica serovar typhimurium, Salmonella Typhimurium T98 with S-9 fraction.
Data set [14] is described as follows: Toxicity in Salmonella Typhimurium […] at 300 ug/plate after 72 hrs by Ames assay in presence of Ames S-9 fraction. In kind it is organism-based. To be noted: salmonella enterica subsp. enterica serovar typhimurium, Salmonella Typhimurium T98 with S-9 fraction. (In general: The Ames test detects mutagens through reverse mutation in bacteria.)
Data set [15] is described as follows: Toxicity in Salmonella Typhimurium […] at 150 ug/plate after 72 hrs by Ames assay in presence of Ames S-9 fraction. The class given is organism-based. The following applies: salmonella enterica subsp. enterica serovar typhimurium, Salmonella Typhimurium T98 with S-9 fraction.

SMILES strings stand for the structures.

For the compound `O=c1cc(-c2ccc(O)cc2)oc2cc(O)cc(O)c12` [APIGENIN], the “inhibition (INH)” value in the data set on Salmonella typhimurium [1] was 10%; with Salmonella typhimurium [2] it was 0%; with Salmonella typhimurium [3], 0%; in the data set on Salmonella typhimurium [4], 0%; in the data set with Salmonella typhimurium [5], 14%; with Salmonella typhimurium [6] it was 0%. Moreover, the “inhibition (INH)” value in the data set with Salmonella typhimurium [7] turned out to be 75%; in the data set with Salmonella typhimurium [8], 64%; in the data set on Salmonella typhimurium [9] it was 67%; in the data set on Salmonella typhimurium [10], 88%; with Salmonella typhimurium [11], 70%; in the data set with Salmonella typhimurium [12], 60%.
In general, inhibition refers to the share of the control response that was lost under treatment. In the case of `C=C[C@@](C)(/C=C/c1ccc(O)cc1)CCC=C(C)C` [BAKUCHIOL], the inhibition at 72 h, 600 ug/plate in [13] was < 30%. Also, the inhibition at 72 h, 300 ug/plate in [14] is < 20%. Further, the inhibition at 72 h, 150 ug/plate in [15] was < 20%. Also, the “inhibition (INH)” value in the data set on Salmonella typhimurium [1] is given as 81%; in the data set with Salmonella typhimurium [2] it was 84%; with Salmonella typhimurium [3] it was 91%; in the data set with Salmonella typhimurium [4], 0%; in the data set with Salmonella typhimurium [5] it was 0%; with Salmonella typhimurium [6] it was 0%. In addition, the “inhibition (INH)” value with Salmonella typhimurium [7] came out at 43%; with Salmonella typhimurium [8], 28%; in the data set with Salmonella typhimurium [9], 0%; in the data set with Salmonella typhimurium [10], 92%; with Salmonella typhimurium [11], 79%; with Salmonella typhimurium [12] it was 75%.
On to `CC(C)=CCc1cc2c(cc1O)O[C@H](c1ccc(O)cc1)CC2=O` [BAVACHIN], for which the inhibition at 72 h, 300 ug/plate in [14] was 50%. In data set [15], the inhibition at 72 h, 150 ug/plate was < 20%. Also, the “inhibition (INH)” value in the data set on Salmonella typhimurium [1] is reported as 62%; in the data set on Salmonella typhimurium [2], 98%; in the data set with Salmonella typhimurium [3], 98%; in the data set on Salmonella typhimurium [5], 0%; in the data set on Salmonella typhimurium [6] it was 0%; in the data set on Salmonella typhimurium [8], 0%. Besides, the “inhibition (INH)” value with Salmonella typhimurium [9] amounted to 0%; with Salmonella typhimurium [11], 72%; in the data set with Salmonella typhimurium [12] it was 52%.
For the compound `COc1ccc(-c2coc3cc(O)cc(O)c3c2=O)cc1` [BIOCHANIN], in data set [13], the inhibition at 72 h, 600 ug/plate is < 20%. Moreover, in data set [14], the inhibition at 72 h, 300 ug/plate was < 20%. For the same compound, in the data set on Salmonella typhimurium [1], the “inhibition (INH)” value worked out at 57%.
Consider `COc1ccc(-c2coc3cc(O)ccc3c2=O)cc1` [FORMONONETIN], for which, in the data set on Salmonella typhimurium [1], the “inhibition (INH)” value is given as 0%.
As for `O=c1c(O)c(-c2ccccc2)oc2cc(O)cc(O)c12` [GALANGIN], the “inhibition (INH)” value in the data set with Salmonella typhimurium [1] is 97%.
With `COc1ccc([C@@H]2CC(=O)c3c(O)cc(O[C@@H]4O[C@H](CO[C@@H]5O[C@@H](C)[C@H](O)[C@@H](O)[C@H]5O)[C@@H](O)[C@H](O)[C@H]4O)cc3O2)cc1O` [HESPERIDIN], in data set [13], the inhibition at 72 h, 600 ug/plate was < 20%. In addition, the inhibition at 72 h, 300 ug/plate in data set [14] is < 20%. In addition, in the data set with Salmonella typhimurium [1], the “inhibition (INH)” value came out at 13%.
On to `CC(C)=CCc1c(O)ccc(C(=O)/C=C/c2ccc(O)cc2)c1O` [ISOBAVACHALCONE], for which the inhibition at 72 h, 600 ug/plate in data set [13] is > 90%. Further, the inhibition at 72 h, 300 ug/plate in data set [14] was > 90%. Moreover, the “inhibition (INH)” value with Salmonella typhimurium [1] was determined as 86%.
On to `O=c1c(O)c(-c2ccc(O)cc2O)oc2cc(O)cc(O)c12` [MORIN], for which the inhibition at 72 h, 600 ug/plate in data set [13] is < 30%. In addition, the inhibition at 72 h, 300 ug/plate in data set [14] is < 20%. Besides, the “inhibition (INH)” value in the data set with Salmonella typhimurium [1] is 0%.
As to `C[C@@H]1O[C@@H](O[C@H]2[C@H](Oc3cc(O)c4c(c3)O[C@H](c3ccc(O)cc3)CC4=O)O[C@H](CO)[C@@H](O)[C@@H]2O)[C@H](O)[C@H](O)[C@H]1O` [NARINGIN], the inhibition at 72 h, 600 ug/plate in data set [13] was 50%. For the same compound, the inhibition at 72 h, 300 ug/plate in [14] was < 30%. Moreover, the “inhibition (INH)” value with Salmonella typhimurium [1] is 38%.
Consider `CC(C)=CCc1cc(-c2coc3cc(O)ccc3c2=O)ccc1O` [NEOBAVAISOFLAVONE], for which, in [13], the inhibition at 72 h, 600 ug/plate is > 90%. The inhibition at 72 h, 300 ug/plate in data set [14] was > 90%. Also, the “inhibition (INH)” value in the data set with Salmonella typhimurium [1] is given as 97%; in the data set on Salmonella typhimurium [2], 67%; in the data set on Salmonella typhimurium [3], 98%; in the data set on Salmonella typhimurium [4], 96%; in the data set with Salmonella typhimurium [5] it was 72%; with Salmonella typhimurium [6] it was 2%. The “inhibition (INH)” value stood at 97% in the data set on Salmonella typhimurium [7]; 74% with Salmonella typhimurium [8]; 17% in the data set with Salmonella typhimurium [9]; 66% in the data set on Salmonella typhimurium [10]; 53% in the data set with Salmonella typhimurium [11]; 15% in the data set on Salmonella typhimurium [12].
As to `COc1ccc(-c2cc(=O)c3c(OC)c(OC)c(OC)c(OC)c3o2)cc1OC` [NOBILETIN], in [13], the inhibition at 72 h, 600 ug/plate is < 20%. Besides, the inhibition at 72 h, 300 ug/plate in data set [14] is < 20%. Besides, the “inhibition (INH)” value in the data set with Salmonella typhimurium [1] was 43%.
`O=c1c(O)c(-c2ccc(O)c(O)c2)oc2cc(O)cc(O)c12` [QUERCETIN]: the inhibition at 72 h, 600 ug/plate in data set [13] stood at 50%. In [14], the inhibition at 72 h, 300 ug/plate was 50%. The “inhibition (INH)” value is recorded as 20% in the data set with Salmonella typhimurium [1]; 24% in the data set on Salmonella typhimurium [2]; 16% in the data set on Salmonella typhimurium [3]; 0% in the data set with Salmonella typhimurium [4]; 0% in the data set with Salmonella typhimurium [5]; 0% in the data set on Salmonella typhimurium [6]. For the same compound, the “inhibition (INH)” value in the data set on Salmonella typhimurium [7], with Salmonella typhimurium [8], with Salmonella typhimurium [9], with Salmonella typhimurium [10], with Salmonella typhimurium [11] and in the data set with Salmonella typhimurium [12] was 0% each time.
Turning to `COc1cc(O)c2c(=O)c(O)c(-c3ccc(O)c(O)c3)oc2c1` [RHAMNETIN], the “inhibition (INH)” value in the data set with Salmonella typhimurium [1] turned out to be 78%; in the data set with Salmonella typhimurium [2], 0%; with Salmonella typhimurium [3] it was 0%; in the data set on Salmonella typhimurium [5] it was 52%; with Salmonella typhimurium [6], 11%; with Salmonella typhimurium [8], 45%. Further, the “inhibition (INH)” value came out at 7% with Salmonella typhimurium [9], 41% in the data set on Salmonella typhimurium [11] and 34% in the data set with Salmonella typhimurium [12].
With `C[C@@H]1O[C@@H](OC[C@H]2O[C@@H](Oc3c(-c4ccc(O)c(O)c4)oc4cc(O)cc(O)c4c3=O)[C@H](O)[C@@H](O)[C@@H]2O)[C@H](O)[C@H](O)[C@H]1O` [RUTIN], the inhibition at 72 h, 600 ug/plate in data set [13] is < 20%. The inhibition at 72 h, 300 ug/plate in data set [14] is < 20%. The “inhibition (INH)” value with Salmonella typhimurium [1] worked out at 0%.
As to `COc1ccc(-c2cc(=O)c3c(OC)c(OC)c(OC)c(OC)c3o2)cc1` [TANGERETIN], the inhibition at 72 h, 600 ug/plate in data set [13] amounted to 50%. Also, in [14], the inhibition at 72 h, 300 ug/plate is < 20%. Moreover, the “inhibition (INH)” value with Salmonella typhimurium [1] was found to be 42%.
